How the values were obtained:
anesthetized rats [1] = experiment: Renal sodium excretion during and after iv peptide infusion in anesthetized rats; type: in vivo, rat
Method: (§1) Rats were not fasted prior to clearance experiments and ranged in weight from 250-340 g at the time of study. Anesthesia was induced with an intraperitoneal injection of pentobarbital sodium (55 mg/kg BW) and maintained at a surgical plane by intermittent intravenous supplementation. Core temperature was maintained at 37° C. by a servo-controlled, heated operating table. Animals breathed spontaneously through a PE240 cannula inserted into the trachea. A jugular vein was catheterized with PE50 cannula tubing for intravenous infusion of isotonic saline containing FITC-labeled inulin (0.4% W/V, Sigma, St Louis Mo.) and two PE10 cannulae, one for supplemental anesthetic and the other for peptide infusions (described below in the experimental protocol section). The ureters were exposed through a midline ventral incision and cannulated with PE10 tubing about one cm from each kidney. Urine was collected over 20 min periods and the volume estimated by weight. A femoral artery was cannulated with PE50 tubing for continuous measurement of arterial blood pressure and intermittent blood samples (50 μl), taken at the mid point of each urine collection.
All rats received a continuous intravenous infusion (10 μl/min/100 g BW) of isotonic saline containing FITC-labeled inulin for measurement of inulin clearance. Uncongugated FITC label and small inulin polymers were removed from the inulin solution by overnight dialysis against isotonic saline (SpectraPor 6 dialysis membrane, 1 kDa cutoff-limit, Spectrum Laboratories, Rancho Domingo, Calif.). Undissolved particulates were removed from the solution by filtration through a […] filter before each experiment (Steriflip, Millipore Inc. Billerica, Mass.). At least one hr was allowed for equilibration before the start of urine collections, at which point plasma inulin concentration had stabilized at an average value of 30±3 μg/ml.
(§2) Arterial blood pressure was measured with a pressure transducer connected to a cardiovascular analyzer (Model 50110, Stoelting Instruments Wood Dale, Ill.). Left renal blood flow was measured in some rats with a flow probe positioned on the left renal artery and connected to a blood flow monitor (model 1 PRB probe and model T420 monitor, Transonic Systems Inc. Ithaca N.Y.). Arterial pressure, heart rate, and renal blood flow were digitized with an A/D converter (Keithley instruments, Cleveland, Ohio Model KUSB 3100) for display and storage on a Windows-based personal computer using open layers data acquisition software (Dtx_Ez, Data Translation Inc, Marlboro, Mass.). Sodium and potassium concentrations in plasma and urine were measured by flame photometry (Model 943, Instrumentation Laboratory Co., Lexington Mass.). Glomerular filtration rate (GFR) was measured as the renal clearance rate of FITC-labeled inulin
(§3) After post-surgical equilibration (−60 min) and three 20 min control clearance periods, huUgnA or B was infused into the jugular vein at 10 μl/min over a 60 min period, followed by a return to isotonic saline for the remainder of the experiment. The infused doses of huUgnA were 12, 25, 50, 100, or 200 nmol/kg BW in a total of 38 rats; huUgnB doses were 9, 18, 35, 70, and 140 nmol/kg BW in 35 rats. A UgnA mimetic, E. coli STh (ST-core), was infused into a third group of 32 rats at doses of 17, 32, 66, 133, and 266 nmol/kg. Renal excretory responses to these infusions were slow to develop and long lasting, so clearance periods were continued for 2-3 hr after the termination of the peptide infusion. This protracted time course limited protocols to one dose of one peptide in each rat. A control group of 10 rats received isotonic saline at 10 μl/min in place of the peptide infusion, but was otherwise treated in the same way as the experimental groups.
The effects of combined infusions of huUgnA and B were investigated in two groups of rats that received 35 nmol/kg of huUgnB together with either 25 nmol/kg (n=5) or 100 nmol/kg of huUgnA (n=5). […]

anesthetized rats [2] = experiment: Renal potassium excretion during and after iv peptide infusion in anesthetized rats; type: in vivo, rat
Method: as §1, §2, §3
Sodium and potassium excretion rates are expressed as absolute values (UNaV and UKV) or factored by filtered load to provide fractional excretion (FENa and FEK). Glomerular filtration rate (GFR) was equated with inulin clearance. The net natriuretic response to peptide infusions was assessed by summing total Na excretion during infusion and post-infusion collection periods in each rat after subtraction of corresponding mean values obtained from the control group. The cumulative net excretion obtained in this way provides a measure of the natriuretic response to each dose of peptide infused. Results from both kidneys were averaged for each rat before calculating group means±sem.
Group comparisons were made with one way analysis of variance (ANOVA) using peptide doses as column variables. […]

[3] = huUgnA 25 nmol, Post-infuse, *** p<0.005 vs time control

## CC(C)C[C@H](NC(=O)[C@@H]1CSSC[C@@H]2NC(=O)[C@H](CC(C)C)NC(=O)[C@H](CCC(=O)O)NC(=O)[C@@H](NC(=O)[C@H](CC(=O)O)NC(=O)[C@H](CC(=O)O)NC(=O)[C@@H](N)CC(N)=O)CSSC[C@H](NC(=O)[C@H](C)NC(=O)[C@H](C(C)C)NC(=O)[C@H](CC(N)=O)NC(=O)[C@H](C(C)C)NC2=O)C(=O)N[C@@H]([C@@H](C)O)C(=O)NCC(=O)N1)C(=O)O (single isomer, unassigned) [huUgnA, Asn Asp Asp Cys Glu Leu Cys Val Asn Val Ala Cys Thr Gly Cys Leu, reference compound]
Anesthetized rats [1]; FIG. 6B, lower or higher doses not different from control
  single effective dose, cumulative sodium excretion: 25 nmol/kg
Anesthetized rats [1]; huUgnA 12 nmol, Infuse
  FENa (fractional sodium excretion): 0.10 ± 0.02 % of filtered
Anesthetized rats [1]; huUgnA 12 nmol, Infusion
  UNaV (sodium excretion): 118.1 ± 25 nEq/min/g KW
Anesthetized rats [1]; huUgnA 12 nmol, Post-infuse
  FENa (fractional sodium excretion): 0.17 ± 0.02 % of filtered
  UNaV (sodium excretion): 222 ± 33 nEq/min/g KW
Anesthetized rats [1]; huUgnA 12 nmol, Pre-infuse
  FENa (fractional sodium excretion): 0.08 ± 0.02 % of filtered
  UNaV (sodium excretion): 85 ± 20 nEq/min/g KW
Anesthetized rats [1]; huUgnA 25 nmol, Infuse, * p<0.05 vs time control
  FENa (fractional sodium excretion): 0.27 ± 0.08* % of filtered
Anesthetized rats [1]; huUgnA 25 nmol, Infusion, * p<0.05 vs time control
  UNaV (sodium excretion): 291.7 ± 77* nEq/min/g KW
Anesthetized rats [1]; [3]
  FENa (fractional sodium excretion): 0.68 ± 0.08*** % of filtered
  UNaV (sodium excretion): 664 ± 75*** nEq/min/g KW
Anesthetized rats [1]; huUgnA 25 nmol, Pre-infuse
  FENa (fractional sodium excretion): 0.09 ± 0.01 % of filtered
  UNaV (sodium excretion): 93 ± 7 nEq/min/g KW
Anesthetized rats [1]; huUgnA 50 nmol, Infuse
  FENa (fractional sodium excretion): 0.10 ± 0.01 % of filtered
Anesthetized rats [1]; huUgnA 50 nmol, Infusion
  UNaV (sodium excretion): 117.5 ± 22 nEq/min/g KW
Anesthetized rats [1]; huUgnA 50 nmol, Post-infuse
  FENa (fractional sodium excretion): 0.28 ± 0.05 % of filtered
Anesthetized rats [1]; huUgnA 50 nmol, Post-infuse, * p<0.05 vs time control
  UNaV (sodium excretion): 342 ± 63* nEq/min/g KW
Anesthetized rats [1]; huUgnA 50 nmol, Pre-infuse
  FENa (fractional sodium excretion): 0.06 ± 0.01 % of filtered
  UNaV (sodium excretion): 73 ± 10 nEq/min/g KW
Anesthetized rats [1]; huUgnA 100 nmol, Infuse
  FENa (fractional sodium excretion): 0.12 ± 0.03 % of filtered
Anesthetized rats [1]; huUgnA 100 nmol, Infusion
  UNaV (sodium excretion): 130.8 ± 32 nEq/min/g KW
Anesthetized rats [1]; huUgnA 100 nmol, Post-infuse
  FENa (fractional sodium excretion): 0.27 ± 0.06 % of filtered
  UNaV (sodium excretion): 328 ± 80 nEq/min/g KW
Anesthetized rats [1]; huUgnA 100 nmol, Pre-infuse
  FENa (fractional sodium excretion): 0.06 ± 0.01 % of filtered
  UNaV (sodium excretion): 66 ± 9 nEq/min/g KW
Anesthetized rats [1]; huUgnA 200 nmol, Infuse
  FENa (fractional sodium excretion): 0.11 ± 0.02 % of filtered
Anesthetized rats [1]; huUgnA 200 nmol, Infusion
  UNaV (sodium excretion): 120.6 ± 18 nEq/min/g KW
Anesthetized rats [1]; huUgnA 200 nmol, Post-infuse
  FENa (fractional sodium excretion): 0.29 ± 0.03 % of filtered
  UNaV (sodium excretion): 342 ± 51 nEq/min/g KW
Anesthetized rats [1]; huUgnA 200 nmol, Pre-infuse
  FENa (fractional sodium excretion): 0.06 ± 0.01 % of filtered
  UNaV (sodium excretion): 67 ± 1 nEq/min/g KW
Anesthetized rats [1]; infusion period (p<0.05) and post infusion period (p<0.001)
  UNaV time course, ANOVA vs control: significant increase
Anesthetized rats [1]; rat, in vivo
  shape of natriuretic dose-response relationship: bell-shaped
Anesthetized rats [2]; any dose tested
  increase in UKV during or after infusion: no statistically significant increases
Anesthetized rats [2]; huUgnA 12 nmol, Infuse
  FEK (fractional potassium excretion): 29.8 ± 3.6 % of filtered
Anesthetized rats [2]; huUgnA 12 nmol, Infusion
  UKV (potassium excretion): 1097 ± 54 nEq/min/g KW
Anesthetized rats [2]; huUgnA 12 nmol, Post-infuse
  FEK (fractional potassium excretion): 34.9 ± 2.7 % of filtered
  UKV (potassium excretion): 1299 ± 51 nEq/min/g KW
Anesthetized rats [2]; huUgnA 12 nmol, Pre-infuse
  FEK (fractional potassium excretion): 18.8 ± 2.3 % of filtered
  UKV (potassium excretion): 709 ± 74 nEq/min/g KW
Anesthetized rats [2]; huUgnA 25 nmol, Infuse
  FEK (fractional potassium excretion): 40.7 ± 3.5 % of filtered
Anesthetized rats [2]; huUgnA 25 nmol, Infusion
  UKV (potassium excretion): 1292 ± 80 nEq/min/g KW
Anesthetized rats [2]; huUgnA 25 nmol, Post-infuse
  FEK (fractional potassium excretion): 46.5 ± 3.8 % of filtered
  UKV (potassium excretion): 1309 ± 68 nEq/min/g KW
Anesthetized rats [2]; huUgnA 25 nmol, Pre-infuse
  FEK (fractional potassium excretion): 25.6 ± 2.4 % of filtered
  UKV (potassium excretion): 780 ± 69 nEq/min/g KW
Anesthetized rats [2]; huUgnA 50 nmol, Infuse
  FEK (fractional potassium excretion): 32.0 ± 2.7 % of filtered
Anesthetized rats [2]; huUgnA 50 nmol, Infusion
  UKV (potassium excretion): 988 ± 66 nEq/min/g KW
Anesthetized rats [2]; huUgnA 50 nmol, Post-infuse
  FEK (fractional potassium excretion): 36.3 ± 3.6 % of filtered
  UKV (potassium excretion): 1180 ± 57 nEq/min/g KW
Anesthetized rats [2]; huUgnA 50 nmol, Pre-infuse
  FEK (fractional potassium excretion): 20.8 ± 2.1 % of filtered
  UKV (potassium excretion): 722 ± 52 nEq/min/g KW
Anesthetized rats [2]; huUgnA 100 nmol, Infuse
  FEK (fractional potassium excretion): 28.0 ± 3.5 % of filtered
Anesthetized rats [2]; huUgnA 100 nmol, Infusion
  UKV (potassium excretion): 878 ± 60 nEq/min/g KW
Anesthetized rats [2]; huUgnA 100 nmol, Post-infuse
  FEK (fractional potassium excretion): 29.9 ± 2.9 % of filtered
  UKV (potassium excretion): 970 ± 72 nEq/min/g KW
Anesthetized rats [2]; huUgnA 100 nmol, Pre-infuse
  FEK (fractional potassium excretion): 19.3 ± 2.5 % of filtered
  UKV (potassium excretion): 602 ± 51 nEq/min/g KW
Anesthetized rats [2]; huUgnA 200 nmol, Infuse
  FEK (fractional potassium excretion): 40.8 ± 7.7 % of filtered
Anesthetized rats [2]; huUgnA 200 nmol, Infusion
  UKV (potassium excretion): 1203 ± 161 nEq/min/g KW
Anesthetized rats [2]; huUgnA 200 nmol, Post-infuse
  UKV (potassium excretion): 1380 ± 73 nEq/min/g KW
Anesthetized rats [2]; huUgnA 200 nmol, Post-infuse, *** p<0.005 vs time control
  FEK (fractional potassium excretion): 57.5 ± 6.7*** % of filtered
Anesthetized rats [2]; huUgnA 200 nmol, Pre-infuse
  FEK (fractional potassium excretion): 27.7 ± 5.9 % of filtered
  UKV (potassium excretion): 860 ± 118 nEq/min/g KW
Anesthetized rats [2]; post infusion period, only after the highest doses
  FEK vs control: increased over control levels
